Where a SMILES comes first, the peptide text is derived from it. Bridges are numbered along the chain shown (N, C = ends).
Columns and labels:
[1] = tested on: aged rat model for post-menopausal osteoporosis; assay: Vertebral compression of L5 (trabecular bone); assay type: in vivo, Sprague-Dawley rats (Rattus Norvegicus); conditions: slow release pellet 0.01 mg/day, 12 weeks
Description: Ninety-six aged Sprague-Dawley rats were randomly assigned to one of eight groups. The first two groups were sham operated. Group 1 was kept as a Sham control and Group 2 was treated with 2.5 mg/kg/day of recombinant human GH (rhGH) (BresaGen). The remaining six groups arrived from Harlan, ovariectomized (OVX). This surgery was performed approximately 8 days before the commencement of treatment. Group 3 was left as a control for the OVX model. Group 4 was given a treatment of 2.5 mg/kg/day of rhGH. Group 5 was treated with a low dose of AOD peptide (LAOD) 0.75 mg/kg/day and Group 6 was treated with a high dose of AOD peptide (HAOD) 2.0 mg/kg/day. […]
Statistical analysis was performed using statistical software, SPSS (version 11.0). Comparisons involving two groups were analyzed by independent student's t-test. Multiple comparisons were analyzed by one-way ANOVA analysis using the pairwise comparison Protected Fisher's Least Significant Difference (LSD) post hoc test. […]
Digital images were taken and image analysis software (ImageJ 1.28u, NIH) was used to determine the height and cross-sectional area of the vertebral body. […] While preloading the samples, the distance between the platens was measured using digital calipers. The gauge length was then determined by subtracting the height of the jig with the distance between the platens. […]

C57B1/6J (Ob/Ob) mouse = conditions: from AU 693478; cited from earlier work

Molecule: 17B-estradiol [Estrogen]
- strength and stiffness (vertebral compression L5), decrease caused by OVX [1]: did not prevent a decrease
- stress and elastic modulus values (vertebral compression L5) compared to OVX [1]: higher

Molecule: CC[C@H](C)[C@H](NC(=O)[C@H](CCCNC(=N)N)NC(=O)[C@H](CC(C)C)NC(=O)[C@@H](N)Cc1ccc(O)cc1)C(=O)N[C@H](C(=O)N[C@@H](CCC(N)=O)C(=O)N[C@H]1CSSC[C@@H](C(=O)NCC(=O)N[C@@H](Cc2ccccc2)C(=O)O)NC(=O)[C@H](CO)NC(=O)CNC(=O)[C@H](CCC(=O)O)NC(=O)[C@H](C(C)C)NC(=O)[C@H](CO)NC(=O)[C@H](CCCNC(=N)N)NC1=O)C(C)C [AOD, Tyr Leu Arg Ile Val Gln Cys Arg Ser Val Glu Gly Ser Cys Gly Phe] (H-YLRIVQCRSVEGSCGF-OH; disulfide 7-14; N-terminus and C-terminus assumed)
- solubility: > 1000 µg/mL

Molecule: hGH 177-191: synthetic peptide corresponding to amino acid residues 177-191 of the human growth hormone sequence (LRIVQCRSVEGSCGF; UniProt P01241 203-217, looked up, fragment)
- adipose tissue mass (C57B1/6J (Ob/Ob) mouse): reduce
- body weight gain (C57B1/6J (Ob/Ob) mouse): reduce
